Consider twelve molecules from ChEMBL document CHEMBL1146942, “Abacavir prodrugs: microwave-assisted synthesis and their evaluation of anti-HIV activities” (Bioorg Med Chem Lett, 2006).

Assay [1] concerns CCRF-CEM. As to the kind of experiment: Cytotoxicity against CEM cell line. The format is functional. The conditions noted are these: Homo sapiens.
Assay [2] has as its system Human immunodeficiency virus 1. As to the kind of experiment: Antiviral activity against HIV1 replication in CEM cell line. The format is functional, organism-based. The conditions noted are these: Human immunodeficiency virus 1, CCRF-CEM.
Assay [3] relates to CCRF-CEM. As to the kind of experiment: Selectivity index (CC50/EC50) for inhibition of HIV1 replication in CEM cell line. It counts as functional.

One may read the CC50 as the concentration giving 50% cytotoxicity. High values mean better tolerance by the cells, low ones harm at low concentration. As a reminder, the pEC50 is the EC50 on a negative log10 scale, so that one unit is a factor of ten. Low values mean a high EC50, high ones a low EC50.

pEC50: −log10 of the molar value. A value given as a limit tells only on which side of the number the result lay.

Regarding `O=[N+]([O-])c1ccccc1/C=N/c1nc(NC2CC2)c2ncn(C3C=CC(CO)C3)c2n1` (stereo not given), the midpoint of cytotoxicity in the assay with CCRF-CEM [1], the CC50, lay at 13 µM. The pEC50 in assay [2] was 6.32.
Taken in the same sequence, the figures for `CN(C)c1ccc(/C=N/c2nc(NC3CC3)c3ncn(C4C=CC(CO)C4)c3n2)cc1` (stereo not given) were greater than 100 µM and 7.22.
Taken in the same sequence, the figures for `OCC1C=CC(n2cnc3c(NC4CC4)nc(/N=C(\c4ccccc4)c4ccc(Br)cc4)nc32)C1` (stereo not given) were 45 µM and 5.43.
Taken in the same sequence, the figures for `COc1ccc(/C=N/c2nc(NC3CC3)c3ncn(C4C=CC(CO)C4)c3n2)cc1` (stereo not given) were greater than 100 µM and 6.44.
With `Cc1ccc2c(c1)/C(=N\c1nc(NC3CC3)c3ncn(C4C=CC(CO)C4)c3n1)C(=O)N2` (stereo not given), the midpoint of cytotoxicity in the assay on CCRF-CEM [1], the CC50, lay at 78 µM. The molecule also gave a pEC50 in assay [2] of 5.68.
Taken in the same sequence, the figures for `O=C1Nc2ccc(F)cc2/C1=N\c1nc(NC2CC2)c2ncn(C3C=CC(CO)C3)c2n1` (stereo not given) were 56 µM and 5.21.
Taken in the same sequence, the figures for `C/C(=N\c1nc(NC2CC2)c2ncn(C3C=CC(CO)C3)c2n1)c1ccc(O)cc1` (stereo not given) were 62 µM and 5.72.
For `COc1ccc(/C=N/c2nc(NC3CC3)c3ncn(C4C=CC(CO)C4)c3n2)c(O)c1` (stereo not given) the same measures were 100 µM and 5.92.
Molecule `O=C1Nc2ccccc2/C1=N\c1nc(NC2CC2)c2ncn(C3C=CC(CO)C3)c2n1` (stereo not given) showed a CC50 in the assay on CCRF-CEM [1] of 48 µM. The same molecule gave a pEC50 in assay [2] of 5.30.
In turn, `O=[N+]([O-])c1ccc(/C=N/c2nc(NC3CC3)c3ncn(C4C=CC(CO)C4)c3n2)cc1` (stereo not given) returned a CC50 in the assay with CCRF-CEM [1] of 12 µM. For the same molecule, in assay [2], the pEC50 is 6.28.
In the assay on CCRF-CEM [1], `Cc1ccc(/C=N/c2nc(NC3CC3)c3ncn(C4C=CC(CO)C4)c3n2)cc1` (stereo not given) displayed a CC50 greater than 100 µM. Further, the Selectivity index with CCRF-CEM [3] is given as greater than 2000. In assay [2], this molecule had a pEC50 of 7.30.
On to `Nc1nc(NC2CC2)c2ncn([C@H]3C=C[C@@H](CO)C3)c2n1` [ABACAVIR], for which the CC50 with CCRF-CEM [1] amounted to 83 µM. In assay [2], this molecule gave a pEC50 of 5.80.
